Measurements published in patent US8629168B2, “Benzoxazoles and oxazolopyridines being useful as janus kinases inhibitors” (priority 2006, dated 2014).

Biological target: T1, GST-JAK2(808-1132) (Homo sapiens, UniProt O60674)
T1 construct: GST-JAK2(808-1132) is purchased from Invitrogen; purchased Invitrogen (Carlsbad, USA) #4288
Assay: EPK JAK/TYK-kinase family profiling assay (Caliper mobility shift), JAK2
Assay type: biochemical
Conditions: Caliper mobility shift assay of Example 187, 20 μM ATP, read-out: IC50 with Test in present Example
Text: All four kinases of the JAK/TYK-kinase family are used as purified recombinant GST-fusion proteins, containing the active kinase domains. GST-JAK1(866-1154), GST-JAK3(811-1124), and GST-TYK2(888-1187) are expressed and purified by affinity chromatography. GST-JAK2(808-1132) is purchased from Invitrogen (Carlsbad, USA, #4288).
The kinase assays are based on the Caliper mobility shift assay using the LabChip 3000 systems. This technology is similar to capillary electrophoresis and uses charge driven separation of substrate and product in a microfluidic chip.
All kinase reactions are performed in 384 well microtiter plates in a total reaction volume of 18 μl. The assay plates are prepared with 0.1 μl per well of test compound in the appropriate test concentration, as described under the section “preparation of compound dilutions”. The reactions are started by combining 9 μl of substrate mix (consisting of peptide and ATP) with 9 μl of kinase dilution. The reactions are incubated for 60 minutes at 30° C. and stopped by adding 70 μl of stop buffer (100 mM Hepes, 5% DMSO, 0.1% Coating reagent, 10 mM EDTA, 0.015% Brij 35).
Fluorescently labeled synthetic peptides are used as substrates in all reactions. […] Specific assay conditions are described in Table 1:
The terminated reactions are transferred to a Caliper LabChip 3000 reader (Caliper Life Sciences, Mountain View, Calif., USA) and the turnover of each reaction is measured by determining the substrate/product ratio.
Test compounds are dissolved in DMSO (10 mM) and transferred into 1.4 mL flat bottom or V-shaped Matrix tubes carrying a unique 2D matrix chip by individual compound hubs. The numbers of these chips are distinctively linked to the individual compound identification numbers. The stock solutions are stored at −20° C. if not used immediately. For the test procedure the vials are defrosted and identified by a scanner whereby a working sheet is generated that guides the subsequent working steps.
Compound dilutions are made in 96 well plates. This format enabled the assay of maximally 40 individual test compounds at 8 concentrations (single points) including 4 reference compounds. The dilution protocol includes the production of pre-dilution plates, master plates and assay plates:
Pre-dilution plates: 96 polypropylene well plates are used as pre-dilution plates. A total of 4 pre-dilution plates are prepared including 10 test compounds each on the plate positions A1-A10, one standard compound at A11 and one DMSO control at A12. All dilution steps are done on a Hamilton STAR robot (Hamilton, Co., Reno, Nev., USA).
Master plates: 100 μL of individual compound dilutions including standard compound and controls of the 4 “pre-dilution plates” are transferred into a 384 “master plate” including the following concentrations 1,820, […], 182, 54.6, 18.2, 5.46, 1.82 and 0.546 μM, respectively in 90% of DMSO.
Assay plates: Identical assay plates are then prepared by pipetting 100 nL each of compound dilutions of the master plates into 384-well “assay plates”. In the following the compounds are mixed with 9 μL of assays components plus 9 μL enzyme corresponding to a 1:181 dilution steps enabling the final concentration of 10, 3.0, 1.0, 0.3, 0.1, 0.03, 0.01 and 0.003 μM, respectively. The preparation of the master plates are handled by the Matrix PlateMate Plus robot (Thermo Fisher Scientific, Handforth, Cheshire, United Kingdom) and replication of assay plates by the HummingBird robot (Genomic Solutions, Inc., Ann Arbor, Mich., USA).

T1 sequence (O60674 808-1132): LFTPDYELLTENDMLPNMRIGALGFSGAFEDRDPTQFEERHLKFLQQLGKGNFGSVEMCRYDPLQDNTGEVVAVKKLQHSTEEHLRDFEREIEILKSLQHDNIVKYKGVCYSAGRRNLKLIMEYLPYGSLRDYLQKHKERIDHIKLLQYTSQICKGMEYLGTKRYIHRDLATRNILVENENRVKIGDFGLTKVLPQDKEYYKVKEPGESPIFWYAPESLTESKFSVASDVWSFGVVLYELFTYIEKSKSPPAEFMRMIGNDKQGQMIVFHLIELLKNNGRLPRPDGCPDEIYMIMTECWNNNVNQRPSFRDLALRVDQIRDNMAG

Row | SMILES | IC50
1 | O=C1Cc2cc(Nc3nc4cccc(-c5cc(F)c(CN6CCOCC6)c(F)c5)c4o3)ccc2N1 [Example 134, 5-[7-(3,5-Difluoro-4-morpholin-4-ylmethyl-phenyl)-benzooxazol-2-ylamino]-1,3-dihydro-indol-2-one] | 98 nM
2 | Cc1cc(Nc2nc3cccc(-c4ccc(C(=O)N5CCOCC5)c(F)c4)c3o2)ccc1C(=O)N(C)C [Example 78, 4-{7-[3-Fluoro-4-(morpholine-4-carbonyl)-phenyl]-benzooxazol-2-ylamino}-2, N,N-trimethyl-benzamide] | 4.5 nM
3 | COc1cc(Nc2nc3cccc(-c4ccc(C(=O)N5CCOCC5)cc4)c3o2)ccc1C(=O)N(C)C [Example 150, 2-Methoxy-N,N-dimethyl-4-{7-[4-(morpholine-4-carbonyl)-phenyl]-benzooxazol-2-ylamino}-benzamide] | 25 nM
4 | COCCNC(=O)c1ccc(Nc2nc3cccc(-c4ccc(C(=O)N5CCOCC5)cc4)c3o2)cc1 [Example 145, N-(2-Methoxy-ethyl)-4-{7-[4-(morpholine-4-carbonyl)-phenyl]-benzooxazol-2-ylamino}-benzamide] | 55 nM
5 | CCN(CC)C(=O)c1ccc(Nc2nc3cccc(-c4cc(F)c(CN5CCNCC5)c(F)c4)c3o2)cc1C [Example 118, 4-[7-(3,5-Difluoro-4-piperazin-1-ylmethyl-phenyl)-benzooxazol-2-ylamino]-N,N-diethyl-2-methyl-benzamide] | 43 nM
6 | CS(=O)(=O)c1ccc(Nc2nc3cccc(-c4ccc(CC(=O)N5CCOCC5)cc4)c3o2)cc1 [Example 124, 2-{4-[2-(4-Methanesulfonyl-phenylamino)-benzooxazol-7-yl]-phenyl}-1-morpholin-4-yl-ethanone] | 5.2 nM
7 | Cc1cc(Nc2nc3cccc(-c4ccc(C(C)(C)C(=O)N5CCOCC5)cc4)c3o2)ccc1CN1CCOCC1 [Example 167, 2-Methyl-2-{4-[2-(3-methyl-4-morpholin-4-ylmethyl-phenylamino)-benzooxazol-7-yl]-phenyl}-1-morpholin-4-yl-propan-1-one] | 14 nM
8 | O=S1(=O)CCN(Cc2c(F)cc(-c3cccc4nc(Nc5ccc(N6CCN(C7CC7)CC6)cc5)oc34)cc2F)CC1 [Example 114, [4-(4-Cyclopropyl-piperazin-1-yl)-phenyl]-{7-[4-(1,1-dioxo-1lambda*6*-thiomorpholin-4-ylmethyl)-3,5-difluoro-phenyl]-benzooxazol-2-yl}-amine] | 14.1 nM
9 | COc1ccc(Nc2nc3cccc(-c4cc(F)c(CN5CCS(=O)(=O)CC5)c(F)c4)c3o2)cc1N1CCN(C)CC1 [Example 130, {7-[4-(1,1-Dioxo-1lambda*6*-thiomorpholin-4-ylmethyl)-3,5-difluoro-phenyl]-benzooxazol-2-yl}-[4-methoxy-3-(4-methyl-piperazin-1-yl)-phenyl]-amine] | 6.55 nM
10 | Cc1cc(Nc2nc3cccc(-c4ccc(CC(=O)N5CCOCC5)cc4)c3o2)ccc1C(=O)N1CCN(C)CC1 [Example 72, 2-(4-{2-[3-Methyl-4-(4-methyl-piperazine-1-carbonyl)-phenylamino]-benzooxazol-7-yl}-phenyl)-1-morpholin-4-yl-ethanone] | 17 nM
11 | CN1CCN(c2ccc(Nc3nc4cccc(-c5ccc(C(=O)N6CCOCC6)c(F)c5)c4o3)cc2)CC1 [Example 75, (2-Fluoro-4-{2-[4-(4-methyl-piperazin-1-yl)-phenylamino]-benzooxazol-7-yl}-phenyl)-morpholin-4-yl-methanone] | 6.5 nM
12 | Cc1cc(-c2cccc3nc(Nc4ccc(N5CCN(C6CC6)CC5)c(C)c4)oc23)ccc1C(=O)N1CCS(=O)(=O)CC1 [Example 162, (4-{2-[4-(4-Cyclopropyl-piperazin-1-yl)-3-methyl-phenylamino]-benzooxazol-7-yl}-2-methyl-phenyl)-(1,1-dioxo-1lambda*6*-thiomorpholin-4-yl)-methanone] | 8.9 nM
13 | Cc1cc(Nc2nc3cccc(-c4cc(F)c(CN5CCS(=O)(=O)CC5)c(F)c4)c3o2)ccc1N1CCN(CCN(C)C)CC1 [Example 107, {4-[4-(2-Dimethylamino-ethyl)-piperazin-1-yl]-3-methyl-phenyl}-{7-[4-(1,1-dioxo-1lambda*6*-thiomorpholin-4-ylmethyl)-3,5-difluoro-phenyl]-benzooxazol-2-yl}-amine] | 4.3 nM
14 | Cc1cc(Nc2nc3cccc(-c4ccc(CN5CCOCC5)c(F)c4)c3o2)ccc1C(=O)N(C)C [Example 64, 4-[7-(3-Fluoro-4-morpholin-4-ylmethyl-phenyl)-benzooxazol-2-ylamino]-2,N,N-trimethyl-benzamide] | 4.2 nM
15 | CS(=O)(=O)c1ccc(-c2cccc3nc(Nc4ccc(N5CCN(C6CC6)CC5)cc4)oc23)cc1 [Example 113, [4-(4-Cyclopropyl-piperazin-1-yl)-phenyl]-[7-(4-methanesulfonyl-phenyl)-benzooxazol-2-yl]-amine] | 270 nM
16 | CN1CCN(c2ccc(Nc3nc4cccc(-c5ccc(C(C)(C)C(=O)N6CCOCC6)cc5)c4o3)cc2)CC1 [Example 151, 2-Methyl-2-(4-{2-[4-(4-methyl-piperazin-1-yl)-phenylamino]-benzooxazol-7-yl}-phenyl)-1-morpholin-4-yl-propan-1-one] | 27.5 nM
17 | Cc1cc(Nc2nc3cccc(-c4ccc(C[S+](C)[O-])cc4)c3o2)ccc1C(=O)N(C)C (stereo not shown) [Example 81, 4-[7-(4-Methanesulfinylmethyl-phenyl)-benzooxazol-2-ylamino]-2,N,N-trimethyl-benzamide] | 17 nM
18 | CN1CCN(c2ccc(Nc3nc4cccc(-c5ccc(C(=O)N6CCOCC6)c(F)c5)c4o3)cc2C#N)CC1 [Example 90, 5-{7-[3-Fluoro-4-(morpholine-4-caronyl)-phenyl]-benzooxazol-2-ylamino}-2-(4-methyl-piperazin-1-yl)-benzonitrile] | 56.5 nM
19 | Cc1cc(Nc2nc3cccc(-c4ccc(C(=O)N5CCOCC5)c(C)c4)c3o2)ccc1C(=O)N(C)C [Example 85, 2,N,N-Trimethyl-4-{7-[3-methyl-4-(morpholine-4-carbonyl)-phenyl]-benzooxazol-2-ylamino}-benzamide] | 9.3 nM
20 | CN(C)C(=O)c1ccc(Nc2nc3cccc(-c4ccc(S(N)(=O)=O)cc4)c3o2)cc1 [Example 146, N,N-Dimethyl-4-[7-(4-sulfamoyl-phenyl)-benzooxazol-2-ylamino]-benzamide] | 19.5 nM
21 | CCN1CCN(c2ccc(Nc3nc4cccc(-c5ccc(C(=O)N6CCOCC6)c(F)c5)c4o3)cc2C)CC1 [Example 94, (4-{2-[4-(4-Ethyl-piperazin-1-yl)-3-methyl-phenylamino]-benzooxazol-7-yl}-2-fluoro-phenyl)-morpholin-4-yl-methanone] | 6.9 nM
22 | Cc1cc(Nc2nc3cccc(-c4cc(F)c(CN5CCOCC5)c(F)c4)c3o2)ccc1N1CCN(C2CC2)CC1 [Example 160, [4-(4-Cyclopropyl-piperazin-1-yl)-3-methyl-phenyl]-[7-(3,5-difluoro-4-morpholin-4-ylmethyl-phenyl)-benzooxazol-2-yl]-amine] | 18 nM
23 | CN1CCN(c2cccc(Nc3nc4cccc(-c5cc(F)c(CN6CCS(=O)(=O)CC6)c(F)c5)c4o3)c2)CC1 [Example 128, {7-[4-(1,1-Dioxo-1lambda*6*-thiomorpholin-4-ylmethyl)-3,5-difluoro-phenyl]-benzooxazol-2-yl}-[3-(4-methyl-piperazin-1-yl)-phenyl]-amine] | 19 nM
24 | Cc1cc(Nc2nc3cccc(-c4cc(F)c(CN5CCS(=O)(=O)CC5)c(F)c4)c3o2)ccc1C(=O)N(C)CCN(C)C [Example 159, N-(2-Dimethylamino-ethyl)-4-{7-[4-(1,1-dioxo-1lambda*6*-thiomorpholin-4-ylmethyl)-3,5-difluoro-phenyl]-benzooxazol-2-ylamino}-2,N-dimethyl-benzamide] | 6.2 nM
25 | CN(C)C(=O)c1ccc(Nc2nc3cccc(-c4ccc(CS(C)(=O)=O)cc4)c3o2)cc1 [Example 71, 4-[7-(4-Methanesulfonylmethyl-phenyl)-benzooxazol-2-ylamino]-N,N-dimethyl-benzamide] | 15 nM
